Measured values from the NIST ThermoML archive (doi:10.1016/j.jct.2005.10.006).

Assay: xn = mol fraction of the nth substance listed
Settings: Fluid (supercritical or subcritical phases), Spherical resonator

N#N [nitrogen] + C
Settings | speed of sound [m/s]
250 K, 30044 kPa, x1 = 0.1 | 707.81
250 K, 30196 kPa, x1 = 0.2 | 665.27
275 K, 105.1 kPa, x1 = 0.2 | 405.31
275 K, 249.6 kPa, x1 = 0.2 | 404.93
275 K, 498.5 kPa, x1 = 0.1 | 416.53
275 K, 498.5 kPa, x1 = 0.2 | 404.25
275 K, 998 kPa, x1 = 0.2 | 402.93
275 K, 998.1 kPa, x1 = 0.1 | 414.81
275 K, 1999 kPa, x1 = 0.1 | 411.66
275 K, 2001 kPa, x1 = 0.2 | 400.6
275 K, 3010 kPa, x1 = 0.2 | 398.72
275 K, 3012 kPa, x1 = 0.1 | 408.95
275 K, 4014 kPa, x1 = 0.2 | 397.39
275 K, 4024 kPa, x1 = 0.1 | 406.81
275 K, 5030 kPa, x1 = 0.2 | 396.69
275 K, 6045 kPa, x1 = 0.2 | 396.72
275 K, 6053 kPa, x1 = 0.1 | 404.7
275 K, 7052 kPa, x1 = 0.2 | 397.57
275 K, 8005 kPa, x1 = 0.1 | 406.18
275 K, 8072 kPa, x1 = 0.2 | 399.34
275 K, 9089 kPa, x1 = 0.2 | 402.1
275 K, 9957 kPa, x1 = 0.1 | 411.99
275 K, 10115 kPa, x1 = 0.2 | 405.96
275 K, 11147 kPa, x1 = 0.2 | 410.97
275 K, 12035 kPa, x1 = 0.1 | 423.61
275 K, 12036 kPa, x1 = 0.1 | 423.62
275 K, 12160 kPa, x1 = 0.2 | 416.99
275 K, 13171 kPa, x1 = 0.2 | 424.08
275 K, 14013 kPa, x1 = 0.2 | 430.77
275 K, 14111 kPa, x1 = 0.1 | 440.93
275 K, 15003 kPa, x1 = 0.2 | 439.49
275 K, 15988 kPa, x1 = 0.1 | 460.87
275 K, 15990 kPa, x1 = 0.2 | 449
275 K, 17009 kPa, x1 = 0.2 | 459.59
275 K, 17997 kPa, x1 = 0.2 | 470.47
275 K, 18033 kPa, x1 = 0.1 | 486.14
275 K, 19084 kPa, x1 = 0.2 | 483.04
275 K, 19680 kPa, x1 = 0.2 | 490.13
275 K, 20228 kPa, x1 = 0.1 | 515.84
275 K, 24821 kPa, x1 = 0.1 | 581.11
275 K, 29257 kPa, x1 = 0.1 | 642.82
275 K, 29972 kPa, x1 = 0.2 | 619.3
300 K, 199.5 kPa, x1 = 0.1 | 434.92
300 K, 248.5 kPa, x1 = 0.2 | 421.88
300 K, 480.1 kPa, x1 = 0.5422 | 386.4
300 K, 498 kPa, x1 = 0.1 | 434.24
300 K, 498.6 kPa, x1 = 0.2 | 421.47
300 K, 707.5 kPa, x1 = 0.5422 | 386.45
300 K, 996.8 kPa, x1 = 0.1 | 433.15
300 K, 1191 kPa, x1 = 0.5422 | 386.59
300 K, 1998 kPa, x1 = 0.1 | 431.25
300 K, 1999 kPa, x1 = 0.2 | 419.47
300 K, 2344 kPa, x1 = 0.5422 | 387.23
300 K, 3003 kPa, x1 = 0.1 | 429.75
300 K, 4015 kPa, x1 = 0.2 | 418.25
300 K, 4016 kPa, x1 = 0.1 | 428.73
300 K, 4632 kPa, x1 = 0.5422 | 389.87
300 K, 5019 kPa, x1 = 0.1 | 428.26
300 K, 6030 kPa, x1 = 0.1 | 428.38
300 K, 6037 kPa, x1 = 0.2 | 419.02
300 K, 6838 kPa, x1 = 0.5422 | 394.27
300 K, 7046 kPa, x1 = 0.1 | 429.17
300 K, 8068 kPa, x1 = 0.2 | 422.18
300 K, 8086 kPa, x1 = 0.1 | 430.75
300 K, 8994 kPa, x1 = 0.5422 | 400.43
300 K, 10104 kPa, x1 = 0.2 | 428.03
300 K, 10134 kPa, x1 = 0.1 | 436.25
300 K, 11262 kPa, x1 = 0.5422 | 408.61
300 K, 11983 kPa, x1 = 0.2 | 435.96
300 K, 12193 kPa, x1 = 0.1 | 445.26
300 K, 14023 kPa, x1 = 0.2 | 447.31
300 K, 14237 kPa, x1 = 0.1 | 457.66
300 K, 16022 kPa, x1 = 0.2 | 461.03
300 K, 16322 kPa, x1 = 0.1 | 473.66
300 K, 17969 kPa, x1 = 0.2 | 476.54
300 K, 18326 kPa, x1 = 0.1 | 491.78
300 K, 19736 kPa, x1 = 0.2 | 492.16
300 K, 19924 kPa, x1 = 0.1 | 507.75
300 K, 24934 kPa, x1 = 0.1 | 563.32
300 K, 30250 kPa, x1 = 0.1 | 625.49
350 K, 202.3 kPa, x1 = 0.1 | 466.26
350 K, 248.7 kPa, x1 = 0.2 | 452.58
350 K, 498.6 kPa, x1 = 0.2 | 452.54
350 K, 502 kPa, x1 = 0.1 | 466.1
350 K, 552.3 kPa, x1 = 0.5422 | 415.67
350 K, 814.8 kPa, x1 = 0.5422 | 415.97
350 K, 1001 kPa, x1 = 0.1 | 465.83
350 K, 1374 kPa, x1 = 0.5422 | 416.67
350 K, 1999 kPa, x1 = 0.2 | 452.66
350 K, 2001 kPa, x1 = 0.1 | 465.52
350 K, 2717 kPa, x1 = 0.5422 | 418.62
350 K, 3007 kPa, x1 = 0.1 | 465.52
350 K, 4009 kPa, x1 = 0.2 | 453.86
350 K, 4012 kPa, x1 = 0.1 | 465.86
350 K, 5419 kPa, x1 = 0.5422 | 423.85
350 K, 6023 kPa, x1 = 0.1 | 467.64
350 K, 6042 kPa, x1 = 0.2 | 456.41
350 K, 8048 kPa, x1 = 0.1 | 471.02
350 K, 8070 kPa, x1 = 0.5422 | 430.68
350 K, 8140 kPa, x1 = 0.2 | 460.55
350 K, 9931 kPa, x1 = 0.2 | 465.36
350 K, 10069 kPa, x1 = 0.1 | 476.07
350 K, 10144 kPa, x1 = 0.2 | 466.02
350 K, 12122 kPa, x1 = 0.1 | 482.98
350 K, 12140 kPa, x1 = 0.2 | 472.93
350 K, 13507 kPa, x1 = 0.5422 | 449.48
350 K, 14143 kPa, x1 = 0.1 | 491.53
350 K, 14157 kPa, x1 = 0.2 | 481.39
350 K, 16162 kPa, x1 = 0.2 | 491.18
350 K, 16179 kPa, x1 = 0.1 | 501.83
350 K, 17867 kPa, x1 = 0.2 | 500.53
350 K, 18210 kPa, x1 = 0.1 | 513.66
350 K, 19448 kPa, x1 = 0.2 | 509.95
350 K, 19809 kPa, x1 = 0.1 | 523.96
400 K, 199.4 kPa, x1 = 0.1 | 494.39
400 K, 231.4 kPa, x1 = 0.2 | 480.07
400 K, 497.1 kPa, x1 = 0.1 | 494.48
400 K, 501.8 kPa, x1 = 0.2 | 480.26
400 K, 622 kPa, x1 = 0.5422 | 442.06
400 K, 918.4 kPa, x1 = 0.5422 | 442.56
400 K, 995.6 kPa, x1 = 0.1 | 494.7
400 K, 1551 kPa, x1 = 0.5422 | 443.69
400 K, 1990 kPa, x1 = 0.1 | 495.31
400 K, 2005 kPa, x1 = 0.2 | 481.61
400 K, 2989 kPa, x1 = 0.1 | 496.16
400 K, 3075 kPa, x1 = 0.5422 | 446.66
400 K, 3994 kPa, x1 = 0.1 | 497.25
400 K, 4015 kPa, x1 = 0.2 | 484.18
400 K, 6011 kPa, x1 = 0.1 | 500.22
400 K, 6027 kPa, x1 = 0.2 | 487.68
400 K, 6170 kPa, x1 = 0.5422 | 453.88
400 K, 8012 kPa, x1 = 0.1 | 504.2
400 K, 8046 kPa, x1 = 0.2 | 492.14
400 K, 9240 kPa, x1 = 0.5422 | 462.55
400 K, 10023 kPa, x1 = 0.1 | 509.28
400 K, 10077 kPa, x1 = 0.2 | 497.61
400 K, 12004 kPa, x1 = 0.2 | 503.66
400 K, 12054 kPa, x1 = 0.1 | 515.5
400 K, 14084 kPa, x1 = 0.1 | 522.78
400 K, 14562 kPa, x1 = 0.2 | 513.02
400 K, 15633 kPa, x1 = 0.5422 | 484.69
400 K, 16027 kPa, x1 = 0.2 | 519
400 K, 16081 kPa, x1 = 0.1 | 530.96
400 K, 16082 kPa, x1 = 0.1 | 530.96
400 K, 18039 kPa, x1 = 0.2 | 527.93
400 K, 18052 kPa, x1 = 0.1 | 539.93
400 K, 19788 kPa, x1 = 0.1 | 548.54
400 K, 20114 kPa, x1 = 0.2 | 537.94
